Source: patent US20250195521A1 (Revolution Medicines, Inc., priority 2020, published 2025)
Several values for one entry are separate records, joined by “and”; a condition that tells them apart may be missing. Equal entries are not always repeated. Where two headings read alike, the source gives them in different places.

What was measured:
[1] = test system: Capan-1 cells (K-Ras G12V); assay: CellTiter-Glo cell viability, Capan-1; format: cell-based, human; conditions: K-Ras G12V, 5-day treatment, read-out: Capan-1 Cell Viability IC50
Procedure, shortened: (§1)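 Compounds were dispensed directly onto seeded cells and incubated until day 5, then plates were equilibrated at room temperature for about 30 min before CellTiter-Glo luminescence readout. Signals were normalized as (sample/average DMSO)×100 and fitted with a four-parameter logistic model.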

KRAS G12C = KRAS G12C (Homo sapiens (Human), UniProt P01116+P62937, G12C); assay: Ras-Raf disruption/FRET/MOA assay (BRAF RBD, Cyclophilin A); format: biochemical; conditions: read-out: KRAS G12C FRET IC50
Sequence of KRAS G12C (P01116-2 other isoform, or with tags, fused parts or gaps G12C): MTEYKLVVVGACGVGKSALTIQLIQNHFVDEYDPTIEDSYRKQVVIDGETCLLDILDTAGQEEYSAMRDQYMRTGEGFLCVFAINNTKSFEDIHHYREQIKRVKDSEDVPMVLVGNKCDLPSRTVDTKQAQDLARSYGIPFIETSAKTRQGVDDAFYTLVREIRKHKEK
Sequence of KRAS G12C (P62937 whole entry): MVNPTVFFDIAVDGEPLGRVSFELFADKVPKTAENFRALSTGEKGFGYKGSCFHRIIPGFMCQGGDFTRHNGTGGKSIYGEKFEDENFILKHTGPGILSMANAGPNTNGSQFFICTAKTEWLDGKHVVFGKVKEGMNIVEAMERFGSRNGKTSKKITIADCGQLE
Procedure, shortened: (§2)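 First, 25 μM Cyclophilin A, 12.5 nM His6-Ras-GMPPNP and 50 nM GST-BRAF RBD are mixed with diluted compound at pH 7.3. Next, 3 h at 25° C. Then 10 nM anti-His Eu-W1024 plus 50 nM anti-GST allophycocyanin for 1.5 h before TR-FRET reading.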

KRAS G12D = KRAS G12D (Homo sapiens (Human), UniProt P01116+P62937, G12D); assay: as above; format: biochemical; conditions: read-out: KRAS G12D FRET IC50
Sequence of KRAS G12D (P01116 other isoform, or with tags, fused parts or gaps G12D): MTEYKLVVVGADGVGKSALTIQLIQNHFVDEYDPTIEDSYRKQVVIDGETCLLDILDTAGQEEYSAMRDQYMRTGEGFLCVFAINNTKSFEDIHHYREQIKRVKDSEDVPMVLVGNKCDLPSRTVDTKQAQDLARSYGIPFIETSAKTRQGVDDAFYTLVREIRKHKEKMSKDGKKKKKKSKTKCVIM
Sequence of KRAS G12D (P62937 whole entry): as the sequence (P62937 whole entry) above
Procedure, shortened: as §2

KRAS G12S = KRAS G12S (Homo sapiens (Human), UniProt P01116+P62937, G12S); assay: as above; format: biochemical; conditions: read-out: KRAS G12S FRET IC50
Sequence of KRAS G12S (P01116 other isoform, or with tags, fused parts or gaps G12S): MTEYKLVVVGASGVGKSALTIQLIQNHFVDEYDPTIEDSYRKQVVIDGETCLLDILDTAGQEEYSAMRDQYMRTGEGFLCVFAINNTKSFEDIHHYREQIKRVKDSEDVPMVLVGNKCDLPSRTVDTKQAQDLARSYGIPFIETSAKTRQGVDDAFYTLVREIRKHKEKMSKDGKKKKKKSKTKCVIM
Sequence of KRAS G12S (P62937 whole entry): as the sequence (P62937 whole entry) above
Procedure, shortened: as §2

KRAS G13C = KRAS G13C (Homo sapiens (Human), UniProt P01116+P62937, G13C); assay: as above; format: biochemical; conditions: read-out: KRAS G13C FRET IC50
Sequence of KRAS G13C (P01116 other isoform, or with tags, fused parts or gaps G13C): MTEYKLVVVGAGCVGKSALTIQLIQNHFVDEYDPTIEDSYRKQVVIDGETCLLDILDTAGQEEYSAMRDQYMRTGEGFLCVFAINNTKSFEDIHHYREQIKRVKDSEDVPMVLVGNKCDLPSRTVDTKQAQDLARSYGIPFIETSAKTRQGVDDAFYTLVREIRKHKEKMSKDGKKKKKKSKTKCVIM
Sequence of KRAS G13C (P62937 whole entry): as the sequence (P62937 whole entry) above
Procedure, shortened: as §2

KRAS G13D = KRAS G13D (Homo sapiens (Human), UniProt P01116+P62937, G13D); assay: as above; format: biochemical; conditions: read-out: KRAS G13D FRET data IC50
Sequence of KRAS G13D (P01116 other isoform, or with tags, fused parts or gaps G13D): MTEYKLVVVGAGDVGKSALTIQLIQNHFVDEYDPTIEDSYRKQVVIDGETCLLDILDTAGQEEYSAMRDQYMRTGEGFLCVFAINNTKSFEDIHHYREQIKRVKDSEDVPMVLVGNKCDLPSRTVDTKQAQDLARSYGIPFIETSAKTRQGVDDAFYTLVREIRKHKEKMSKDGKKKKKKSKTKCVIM
Sequence of KRAS G13D (P62937 whole entry): as the sequence (P62937 whole entry) above
Procedure, shortened: as §2

KRAS WT = KRAS WT (Homo sapiens (Human), UniProt P01116+P62937); assay: as above; format: biochemical; conditions: read-out: KRAS WT FRET data IC50
Sequence of KRAS WT (P01116 other isoform, or with tags, fused parts or gaps): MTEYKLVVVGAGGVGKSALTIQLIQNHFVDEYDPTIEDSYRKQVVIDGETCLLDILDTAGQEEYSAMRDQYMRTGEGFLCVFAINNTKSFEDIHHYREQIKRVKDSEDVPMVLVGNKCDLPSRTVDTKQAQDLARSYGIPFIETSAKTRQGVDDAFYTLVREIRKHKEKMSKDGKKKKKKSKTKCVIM
Sequence of KRAS WT (P62937 whole entry): as the sequence (P62937 whole entry) above
Procedure, shortened: as §2

NRAS G12C = NRAS G12C (Homo sapiens (Human), UniProt P01111+P62937, G12C); assay: as above; format: biochemical; conditions: read-out: NRAS G12C FRET data IC50
Sequence of NRAS G12C (P01111 whole entry G12C): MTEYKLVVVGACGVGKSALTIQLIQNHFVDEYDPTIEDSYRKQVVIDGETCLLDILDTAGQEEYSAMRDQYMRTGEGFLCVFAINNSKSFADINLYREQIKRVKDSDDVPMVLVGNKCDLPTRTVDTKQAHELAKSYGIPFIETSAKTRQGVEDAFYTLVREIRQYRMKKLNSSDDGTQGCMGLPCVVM
Sequence of NRAS G12C (P62937 whole entry): as the sequence (P62937 whole entry) above
Procedure, shortened: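 25 μM tagless Cyclophilin A, 12.5 nM His6-Ras-GMPPNP and 50 nM GST-BRAF RBD in HEPES pH 7.3 buffer with 5 mM MgCl2, with compound (10-point 3-fold series from 30 μM final) for 3 h at 25 °C. Anti-His Eu and anti-GST APC then added for 1.5 h. IC50 from TR-FRET ratio decrease versus DMSO.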

[2] = biological target: K-Ras G12C(GMP-PNP) binding to BRAF RBD (Homo sapiens (Human), UniProt P01116+P62937, G12C); assay: Disruption of BRAF RBD interaction with K-Ras (FRET / MOA assay), K-Ras G12C; format: biochemical
Sequence of K-Ras G12C(GMP-PNP) binding to BRAF RBD (P01116 other isoform, or with tags, fused parts or gaps G12C): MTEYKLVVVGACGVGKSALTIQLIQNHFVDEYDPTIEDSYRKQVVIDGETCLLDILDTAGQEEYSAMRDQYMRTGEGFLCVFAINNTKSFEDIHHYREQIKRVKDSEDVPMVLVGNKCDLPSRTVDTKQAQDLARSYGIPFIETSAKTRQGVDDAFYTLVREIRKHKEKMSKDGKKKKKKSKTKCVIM
Sequence of K-Ras G12C(GMP-PNP) binding to BRAF RBD (P62937 whole entry): as the sequence (P62937 whole entry) above
Excerpt: Note—The following protocol describes a procedure for monitoring disruption of K-Ras G12C(GMP-PNP) binding to BRAF^RBD by a compound of the invention. This protocol may also be executed substituting other Ras proteins or nucleotides.
The purpose of this biochemical assay was to measure the ability of test compounds to facilitate ternary complex formation between a nucleotide-loaded K-Ras isoform and Cyclophilin A; the resulting ternary complex disrupts binding to a BRAF^RBD construct, inhibiting K-Ras signaling through a RAF effector. Data is reported as IC50 values.
Compound was present in plate wells as a 10-point 3-fold dilution series starting at a final concentration of 30 μM. After incubation at 25° C. for 3 hours, a mixture of Anti-His Eu—W1024 and anti-GST allophycocyanin was then added to assay sample wells at final concentrations of 10 nM and 50 nM, respectively, and the reaction incubated for an additional 1.5 hours. […] Compounds that facilitate disruption of a K-Ras: RAF complex were identified as those eliciting a decrease in the TR-FRET ratio relative to DMSO control wells.

KRAS G12V = KRAS G12V (Homo sapiens (Human), UniProt P01116+P62937, G12V); assay: Ras-Raf disruption/FRET/MOA assay (BRAF RBD, Cyclophilin A); format: biochemical; conditions: read-out: KRAS G12V FRET IC50
Sequence of KRAS G12V (P01116 other isoform, or with tags, fused parts or gaps G12V): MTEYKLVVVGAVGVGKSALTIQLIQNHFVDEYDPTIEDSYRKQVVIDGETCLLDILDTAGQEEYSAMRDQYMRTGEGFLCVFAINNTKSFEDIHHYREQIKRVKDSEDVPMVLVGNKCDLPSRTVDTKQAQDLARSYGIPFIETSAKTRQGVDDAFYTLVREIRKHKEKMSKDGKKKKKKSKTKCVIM
Sequence of KRAS G12V (P62937 whole entry): as the sequence (P62937 whole entry) above
Procedure, shortened: as §2

[3] = test system: NCI-H358 cells (K-Ras G12C); assay: CellTiter-Glo cell viability, NCI-H358; format: cell-based, human; conditions: K-Ras G12C, 5-day treatment, read-out: H358 Cell Viability IC50
Procedure, shortened: as §1

NCI-H358 (K-Ras G12C) = assay: CellTiter-Glo cell viability assay, NCI-H358; format: cell-based, human
Procedure, shortened: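 NCI-H358 cells were treated with test compounds dispensed directly into the assay wells and incubated until day 5. Viability was then read by CellTiter-Glo luminescence after a ~30 min room-temperature equilibration, normalized to the DMSO average (×100), and fit with a four-parameter logistic curve.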

[4] = test system: K-Ras G12C (NCI-H358 cells); assay: Potency assay: pERK in NCI-H358 cells; format: cell-based, human; conditions: NCI-H358 cells, 4 hours, read-out: pERK EC50 (H358 KRAS G12C)
Procedure, shortened: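 Cells plated the day before were exposed for 4 h at 37° C, 5% CO2 to a 10-point, 3-fold DMSO dilution series (10 mM top stock), in duplicate. Phospho-ERK was read by AlphaLISA SureFire Ultra or by In-Cell Western with DRAQ5 DNA stain, and IC50 came from a 4-parameter sigmoidal fit.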

[5] = Homo sapiens, NCI-H358, 120 h, 5-day treatment, read-out: H358 Cell Viability assay data (K-Ras G12C, IC50)

Compound	IC50 ([1]; Homo sapiens, CAPAN-1, 120 h) [µM]	IC50 (KRAS G12C) [µM]	IC50 (KRAS G12D) [µM]	IC50 (KRAS G12S) [µM]	IC50 (KRAS G13C) [µM]	IC50 (KRAS G13D) [µM]	IC50 (KRAS WT) [µM]	IC50 (NRAS G12C) [µM]	IC50 ([2]; read-out: KRAS G12C FRET IC50)	IC50 (KRAS G12V) [µM]	IC50 ([3]; Homo sapiens, NCI-H358, 120 h) [µM]	IC50 (NCI-H358 (K-Ras G12C); [5]) [µM]	IC50 ([2]; KRAS G12C FRET IC50)	IC50 [3] [µM]	IC50 [1] [µM]	EC50 [4] [µM]	IC50 (NCI-H358 (K-Ras G12C); 5-day treatment, read-out: H358 Cell Viability assay data (K-Ras G12C, IC50)) [µM]	EC50 ([4]; Homo sapiens) [µM]	IC50 (NCI-H358 (K-Ras G12C); Homo sapiens, NCI-H358, 120 h, read-out: H358 Cell Viability assay data (K-Ras G12C, IC50, uM), 5-day treatment) [µM]
CCn1c(-c2cccnc2[C@H](C)OC)c2c3cc(ccc31)-c1csc(n1)C[C@H](NC(=O)[C@H](C(C)C)N1CCCC1=O)C(=O)N1CCC[C@H](N1)C(=O)OCC(C)(C)C2 [Compound A212]	> 10	1 to 10	> 10	> 10	1 to 10	> 10	> 10	1 to 10	0.1 to 1 µM and 1 to 10 µM										
CCn1c(-c2cnccc2COC)c2c3cc(ccc31)-c1cc(O)cc(c1)C[C@H](NC(=O)[C@H](C(C)C)N(C)C(=O)[C@H]1CN(C(C)=O)C[C@H]1C(F)(F)F)C(=O)N1CCC[C@H](N1)C(=O)OCC(C)(C)C2 [Compound A215]	> 10	0.1 to 1	1 to 10	0.1 to 1	0.01 to 0.1	0.1 to 1	0.1 to 1	0.1 to 1	0.1 to 1 µM and > 10 µM	0.1 to 1									
CCn1c(-c2cnccc2COC)c2c3cc(ccc31)-c1cc(O)cc(c1)C[C@H](NC(=O)[C@H](C(C)C)N(C)C(=O)[C@H]1CNC[C@H]1C(F)(F)F)C(=O)N1CCC[C@H](N1)C(=O)OCC(C)(C)C2 [Compound A216]	1 to 10	0.01 to 0.1	0.1 to 1	0.1 to 1	0.01 to 0.1	0.01 to 0.1	0.01 to 0.1	0.1 to 1	0.1 to 1 µM and 1 to 10 µM	1 to 10	1 to 10								
CCn1c(-c2cccnc2[C@H](C)OC)c2c3cc(ccc31)-c1csc(n1)C[C@H](NC(=O)[C@H](C(C)C)N1CCC3(CCN(S(C)(=O)=O)C3)C1=O)C(=O)N1CCC[C@H](N1)C(=O)OCC(C)(C)C2 (stereo partly shown) [Compound A220]		1 to 10	> 10	1 to 10	1 to 10	> 10	1 to 10	1 to 10		1 to 10		> 10	0.1 to 1 µM and 1 to 10 µM						
CCn1c(-c2cccnc2[C@H](C)OC)c2c3cc(ccc31)-c1cc(O)cc(c1)C[C@H](NC(=O)[C@H](C(C)C)N(C)C(=O)[C@@H]1C[C@@H]1C)C(=O)N1CCC[C@H](N1)C(=O)OCC(C)(C)C2 [Compound A223]	0.1 to 1	0.01 to 0.1	0.01 to 0.1	0.01 to 0.1	0.01 to 0.1	0.01 to 0.1	0.01 to 0.1	0.01 to 0.1	0.1 to 1 µM and > 10 µM	0.01 to 0.1		> 10							
CCn1c(-c2cccnc2[C@H](C)OC)c2c3cc(ccc31)-c1csc(n1)C[C@H](NC(=O)[C@H]1[C@H](C)[C@@H]1C)C(=O)N1CCC[C@H](N1)C(=O)OCC(C)(C)C2 [Compound A227, (1R,2R,3S)—N-((6^3S,4S,Z)-1^1-ethyl-1^2-(2-((S)-1-methoxyethyl)pyridin-3-yl)-10,10-dimethyl-5,7-dioxo-6^1,6^2,6^3,6^4,6^5,6^6-hexahydro-1^1H-8-oxa-2 (4,2)-thiazola-1 (5,3)-indola-6 (1,3)-pyridazinacycloundecaphane-4-yl)-2,3-dimethylcyclopropane-1-carboxamide]					0.01 to 0.1				0.1 to 1 µM					1 to 10	> 10	< 5	0.1 to 1		
CCn1c(-c2cccnc2[C@H](C)OC)c2c3cc(ccc31)-c1csc(n1)C[C@H](NC(=O)[C@H](C(C)C)N(C)C(=O)N1C[C@H](C)N(C)C[C@@H]1C)C(=O)N1CCC[C@H](N1)C(=O)OCC(C)(C)C2 [Compound A283]	0.1 to 1								0.01 to 0.1 µM and 1 to 10 µM		0.1 to 1							< 5	
CCn1c(-c2cccnc2[C@H](C)OC)c2c3cc(ccc31)-c1cc(O)cc(c1)C[C@H](NC(=O)[C@H](C(C)C)N(C)C(=O)[C@H]1CCN(C(C)=O)C1)C(=O)N1CCC[C@H](N1)C(=O)NCC(C)(C)C2 [Compound A431]		0.1 to 1	1 to 10	0.1 to 1	0.1 to 1	1 to 10	1 to 10	0.1 to 1	0.1 to 1 µM	0.1 to 1		0.01 to 0.1							
CCn1c(-c2cccnc2[C@H](C)OC)c2c3cc(ccc31)-c1csc(n1)C[C@H](NC(=O)[C@H](C(C)C)N(C)C(=O)N1CCC[C@@H](N(C)C)CC1)C(=O)N1CCC[C@H](N1)C(=O)OCC(C)(C)C2 [Compound A494]									0.1 to 1 µM		0.01 to 0.1								0.1 to 1
CCn1c(-c2cc(N3CCN(C)CC3)cnc2[C@H](C)OC)c2c3cc(ccc31)-c1csc(n1)C[C@H](NC(=O)[C@H](C(C)C)N(C)C(=O)[C@@H]1OCC[C@@H]1c1ccccc1)C(=O)N1CCC[C@H](N1)C(=O)OCC(C)(C)C2 [Compound A593]	< 0.01								0.1 to 1 µM		< 0.01	0.1 to 1						< 5	
